Drawing on US8017585B2, “CXCR4 antagonist and use thereof” (priority 2002, dated 2011), this text covers IC50 for 14 compounds.

SMILES strings stand for the structures. Numbered stars: 1 amine (or outer) side, 2 acyl side, 3 side chain; on linkers, the order of the positions; unused ones are H or OH. Bridge positions count the residues as written; N and C are the ends. Square brackets hold non-standard residues; d marks the D form. Peptide text beside a SMILES is read from it. * marks the point of attachment. X4 = CN(C)C(=N[C@@H](CCCNC(=N)N)C(=O)*)N(C)C; Pentanoyl(5-guanidino) = NC(N)=NCCCCC(=O)*; 2Nal = N[C@@H](Cc1ccc2ccccc2c1)C(=O)O; X1 = N=C(N)NCCC[C@H](NC(=N)N)C(=O)*; Glutaryl = O=C(CCCC(=O)[*:2])[*:1]; Benzoyl(4-F) = O=C(c1ccc(F)cc1)*; dCit = NC(=O)NCCC[C@@H](N)C(=O)O; Cit = NC(=O)NCCC[C@H](N)C(=O)O; X5 = O=C(c1ccccc1F)*; Ahx = NCCCCCC(=O)O; Ava = NCCCCC(=O)O

The assay concerns the target T1, CXCR4 receptor (Homo sapiens, UniProt P61073).
T1 construct: 50 μL of Jurkat human T-cell leukemia cells (6×10^6 cells/mL) suspended in buffer; endogenous in cells; host or cells: Jurkat human T-cell leukemia cells
Description: Inhibition of 125I-CXCL12 binding to CXCR4 receptor on Jurkat cells. The following applies: Table 1, 125I-CXCL12, 1 hour at room temperature, compounds as acetate salt, read-out: IC50 (nM), inhibitory activity against CXCL12 binding to CXCR4 receptor.
Description: After reaction, suction was made toward the reaction solution by 96 well GF/C filter plate, and each well's radioactivity was measured by top count. As the radioactivity index of 100% when the test compound was not added, and 0% when 100 nM of non-radioisotope-labeled CXCL12 was added, the inhibitory activity of each test compound was measured.

T1 sequence (P61073 whole entry): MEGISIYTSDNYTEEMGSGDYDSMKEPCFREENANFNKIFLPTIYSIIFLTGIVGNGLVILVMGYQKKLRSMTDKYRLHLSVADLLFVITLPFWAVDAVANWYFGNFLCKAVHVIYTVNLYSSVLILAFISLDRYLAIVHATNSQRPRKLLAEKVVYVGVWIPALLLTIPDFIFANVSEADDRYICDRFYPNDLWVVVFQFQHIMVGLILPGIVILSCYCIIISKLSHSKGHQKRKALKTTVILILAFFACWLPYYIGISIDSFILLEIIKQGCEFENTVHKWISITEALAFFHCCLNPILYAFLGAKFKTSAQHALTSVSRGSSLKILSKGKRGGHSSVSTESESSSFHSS

In general, IC50 refers to the concentration that inhibits the measured activity by half. For the compound `N=C(N)NCCC[C@H](NC(=O)[C@@H]1CSSC[C@H](NC(=O)[C@H](Cc2ccc3ccccc3c2)NC(=O)[C@H](CCCNC(=N)N)NC(=O)[C@@H](N)CCCNC(=N)N)C(=O)N[C@@H](Cc2ccc(O)cc2)C(=O)N[C@@H](CCCNC(N)=O)C(=O)N[C@@H](CCCCN)C(=O)N[C@H](CCC(=O)O)C(=O)N2CCC[C@H]2C(=O)N[C@@H](Cc2ccc(O)cc2)C(=O)N[C@@H](CCCNC(=N)N)C(=O)N[C@@H](CCCNC(N)=O)C(=O)N1)C(N)=O` [TE14011, H-Arg-Arg-Nal-Cys-Tyr-Cit-Lys-DGlu-Pro-Tyr-Arg-Cit-Cys-Arg-NH2] (H-RR[2Nal]CY[Cit]K[dE]PYR[Cit]CR-NH2; disulfide 4-13), the half-maximal inhibitory concentration (IC50) was 2.9 nM.

Take `N=C(N)NCCC[C@H](NC(=O)[C@@H]1CSSC[C@H](NC(=O)[C@H](Cc2ccc3ccccc3c2)NC(=O)[C@H](CCCNC(=N)N)NC(=O)[C@H](CCCNC(=N)N)NC(=O)c2ccccc2F)C(=O)N[C@@H](Cc2ccc(O)cc2)C(=O)N[C@@H](CCCNC(N)=O)C(=O)N[C@@H](CCCCN)C(=O)N[C@H](CCC(=O)O)C(=O)N2CCC[C@H]2C(=O)N[C@@H](Cc2ccc(O)cc2)C(=O)N[C@@H](CCCNC(=N)N)C(=O)N[C@@H](CCCNC(N)=O)C(=O)N1)C(N)=O` [TF6, 2F-benzoyl-Arg-Arg-Nal-Cys-Tyr-Cit-Lys-DGlu-Pro-Tyr-Arg-Cit-Cys-Arg-NH2] (X5-RR[2Nal]CY[Cit]K[dE]PYR[Cit]CR-NH2; disulfide 4-13): the IC50 is 3.9 nM.

As to `CC(=O)N[C@@H](CCCNC(=N)N)C(=O)N[C@@H](CCCNC(=N)N)C(=O)N[C@@H](Cc1ccc2ccccc2c1)C(=O)N[C@H]1CSSC[C@@H](C(=O)N[C@@H](CCCNC(=N)N)C(N)=O)NC(=O)[C@H](CCCNC(N)=O)NC(=O)[C@H](CCCNC(=N)N)NC(=O)[C@H](Cc2ccc(O)cc2)NC(=O)[C@@H]2CCCN2C(=O)[C@@H](CCC(=O)O)NC(=O)[C@H](CCCCN)NC(=O)[C@H](CCCNC(N)=O)NC(=O)[C@H](Cc2ccc(O)cc2)NC1=O` [TF1, Ac-Arg-Arg-Nal-Cys-Tyr-Cit-Lys-DGlu-Pro-Tyr-Arg-Cit-Cys-Arg-NH2] (Ac-RR[2Nal]CY[Cit]K[dE]PYR[Cit]CR-NH2; disulfide 4-13), the IC50 came to 11 nM.

Consider `N=C(N)NCCC[C@H](NC(=O)[C@@H]1CSSC[C@H](NC(=O)[C@H](Cc2ccc3ccccc3c2)NC(=O)[C@H](CCCNC(=N)N)NC(=O)[C@H](CCCNC(=N)N)NC(=N)N)C(=O)N[C@@H](Cc2ccc(O)cc2)C(=O)N[C@@H](CCCNC(N)=O)C(=O)N[C@@H](CCCCN)C(=O)N[C@H](CCC(=O)O)C(=O)N2CCC[C@H]2C(=O)N[C@@H](Cc2ccc(O)cc2)C(=O)N[C@@H](CCCNC(=N)N)C(=O)N[C@@H](CCCNC(N)=O)C(=O)N1)C(N)=O` [TF2, guanyl-Arg-Arg-Nal-Cys-Tyr-Cit-Lys-DGlu-Pro-Tyr-Arg-Cit-Cys-Arg-NH2] (X1-R[2Nal]CY[Cit]K[dE]PYR[Cit]CR-NH2; disulfide 3-12), for which the IC50 was found to be 3.3 nM.

For the compound `N=C(N)NCCC[C@H](NC(=O)[C@@H]1CSSC[C@H](NC(=O)[C@H](Cc2ccc3ccccc3c2)NC(=O)[C@H](CCCNC(=N)N)NC(=N)N)C(=O)N[C@@H](Cc2ccc(O)cc2)C(=O)N[C@@H](CCCNC(N)=O)C(=O)N[C@@H](CCCCN)C(=O)N[C@H](CCC(=O)O)C(=O)N2CCC[C@H]2C(=O)N[C@@H](Cc2ccc(O)cc2)C(=O)N[C@@H](CCCNC(=N)N)C(=O)N[C@@H](CCCNC(N)=O)C(=O)N1)C(N)=O` [TF9, guanyl-Arg-Nal-Cys-Tyr-Cit-Lys-DGlu-Pro-Tyr-Arg-Cit-Cys-Arg-NH2] (X1-[2Nal]CY[Cit]K[dE]PYR[Cit]CR-NH2; disulfide 2-11), the concentration for half-maximal inhibition (IC50) was 250 nM.

Turning to `N=C(N)NCCC[C@H](NC(=O)[C@@H]1CSSC[C@H](NC(=O)[C@H](Cc2ccc3ccccc3c2)NC(=O)[C@H](CCCNC(=N)N)NC(=O)[C@@H](N)CCCNC(=N)N)C(=O)N[C@@H](Cc2ccc(O)cc2)C(=O)N[C@H](CCC(=O)O)C(=O)N[C@@H](CCCCN)C(=O)N[C@H](CCCNC(N)=O)C(=O)N2CCC[C@H]2C(=O)N[C@@H](Cc2ccc(O)cc2)C(=O)N[C@@H](CCCNC(=N)N)C(=O)N[C@@H](CCCNC(N)=O)C(=O)N1)C(N)=O` [TE14012, H-Arg-Arg-Nal-Cys-Tyr-DGlu-Lys-DCit-Pro-Tyr-Arg-Cit-Cys-Arg-NH2] (H-RR[2Nal]CY[dE]K[dCit]PYR[Cit]CR-NH2; disulfide 4-13), the IC50 amounted to 5.4 nM.

In the case of `N=C(N)NCCC[C@H](NC(=O)[C@@H]1CSSC[C@H](NC(=O)[C@H](Cc2ccc3ccccc3c2)NC(=O)[C@H](CCCNC(=N)N)NC(=O)[C@H](CCCNC(=N)N)NC(=O)c2ccc(F)cc2)C(=O)N[C@@H](Cc2ccc(O)cc2)C(=O)N[C@@H](CCCNC(N)=O)C(=O)N[C@@H](CCCCN)C(=O)N[C@H](CCC(=O)O)C(=O)N2CCC[C@H]2C(=O)N[C@@H](Cc2ccc(O)cc2)C(=O)N[C@@H](CCCNC(=N)N)C(=O)N[C@@H](CCCNC(N)=O)C(=O)N1)C(N)=O` [TF5, 4F-benzoyl-Arg-Arg-Nal-Cys-Tyr-Cit-Lys-DGlu-Pro-Tyr-Arg-Cit-Cys-Arg-NH2] ({Benzoyl(4-F)}-RR[2Nal]CY[Cit]K[dE]PYR[Cit]CR-NH2; disulfide 4-13), the IC50 was 2.8 nM.

Consider `N=C(N)NCCC[C@H](NC(=O)[C@@H]1CSSC[C@H](NC(=O)[C@H](Cc2ccc3ccccc3c2)NC(=O)[C@H](CCCNC(=N)N)NC(=O)CCCC(=O)O)C(=O)N[C@@H](Cc2ccc(O)cc2)C(=O)N[C@@H](CCCNC(N)=O)C(=O)N[C@@H](CCCCN)C(=O)N[C@H](CCC(=O)O)C(=O)N2CCC[C@H]2C(=O)N[C@@H](Cc2ccc(O)cc2)C(=O)N[C@@H](CCCNC(=N)N)C(=O)N[C@@H](CCCNC(N)=O)C(=O)N1)C(N)=O` [TF11, glutaryl-Arg-Nal-Cys-Tyr-Cit-Lys-DGlu-Pro-Tyr-Arg-Cit-Cys-Arg-NH2] (Glutaryl-R[2Nal]CY[Cit]K[dE]PYR[Cit]CR-NH2; disulfide 3-12), for which the IC50 worked out at 630 nM.

Regarding `N=C(N)NCCC[C@H](NC(=O)[C@@H]1CSSC[C@H](NC(=O)[C@H](Cc2ccc3ccccc3c2)NC(=O)[C@H](CCCNC(=N)N)NC(=O)[C@@H](N)CCCNC(=N)N)C(=O)N[C@@H](Cc2ccc(O)cc2)C(=O)N[C@H](CCC(=O)O)C(=O)N[C@@H](CCCCN)C(=O)N[C@H](CCC(=O)O)C(=O)N2CCC[C@H]2C(=O)N[C@@H](Cc2ccc(O)cc2)C(=O)N[C@@H](CCCNC(=N)N)C(=O)N[C@@H](CCCNC(N)=O)C(=O)N1)C(N)=O` [TE14013, H-Arg-Arg-Nal-Cys-Tyr-DGlu-Lys-DGlu-Pro-Tyr-Arg-Cit-Cys-Arg-NH2] (H-RR[2Nal]CY[dE]K[dE]PYR[Cit]CR-NH2; disulfide 4-13), the IC50 amounted to 9.3 nM.

Take `N=C(N)NCCCCC(=O)N[C@@H](CCCNC(=N)N)C(=O)N[C@@H](Cc1ccc2ccccc2c1)C(=O)N[C@H]1CSSC[C@@H](C(=O)N[C@@H](CCCNC(=N)N)C(N)=O)NC(=O)[C@H](CCCNC(N)=O)NC(=O)[C@H](CCCNC(=N)N)NC(=O)[C@H](Cc2ccc(O)cc2)NC(=O)[C@@H]2CCCN2C(=O)[C@@H](CCC(=O)O)NC(=O)[C@H](CCCCN)NC(=O)[C@H](CCCNC(N)=O)NC(=O)[C@H](Cc2ccc(O)cc2)NC1=O` [TF8, desamino-R-Arg-Nal-Cys-Tyr-Cit-Lys-DGlu-Pro-Tyr-Arg-Cit-Cys-Arg-NH2] ({Pentanoyl(5-guanidino)}-R[2Nal]CY[Cit]K[dE]PYR[Cit]CR-NH2; disulfide 3-12): the half-inhibitory concentration (IC50) amounted to 8.2 nM.

`N=C(N)NCCC[C@H](NC(=O)[C@@H]1CSSC[C@H](NC(=O)[C@H](Cc2ccc3ccccc3c2)NC(=O)[C@H](CCCNC(=N)N)NC(=O)[C@H](CCCNC(=N)N)NC(=O)CCCCCN)C(=O)N[C@@H](Cc2ccc(O)cc2)C(=O)N[C@@H](CCCNC(N)=O)C(=O)N[C@@H](CCCCN)C(=O)N[C@H](CCCNC(N)=O)C(=O)N2CCC[C@H]2C(=O)N[C@@H](Cc2ccc(O)cc2)C(=O)N[C@@H](CCCNC(=N)N)C(=O)N[C@@H](CCCNC(N)=O)C(=O)N1)C(N)=O` [TF19, ACA-Arg-Arg-Nal-Cys-Tyr-Cit-Lys-DCit-Pro-Tyr-Arg-Cit-Cys-Arg-NH2] (H-[Ahx]RR[2Nal]CY[Cit]K[dCit]PYR[Cit]CR-NH2; disulfide 5-14): the IC50 came out at 4.5 nM.

Take `N=C(N)NCCC[C@H](NC(=O)[C@@H]1CSSC[C@H](NC(=O)[C@H](Cc2ccc3ccccc3c2)NC(=O)[C@H](CCCNC(=N)N)NC(=O)CCCCN)C(=O)N[C@@H](Cc2ccc(O)cc2)C(=O)N[C@@H](CCCNC(N)=O)C(=O)N[C@@H](CCCCN)C(=O)N[C@H](CCC(=O)O)C(=O)N2CCC[C@H]2C(=O)N[C@@H](Cc2ccc(O)cc2)C(=O)N[C@@H](CCCNC(=N)N)C(=O)N[C@@H](CCCNC(N)=O)C(=O)N1)C(N)=O` [TF7, APA-Arg-Nal-Cys-Tyr-Cit-Lys-DGlu-Pro-Tyr-Arg-Cit-Cys-Arg-NH2] (H-[Ava]R[2Nal]CY[Cit]K[dE]PYR[Cit]CR-NH2; disulfide 4-13): the IC50 came to 5.7 nM.

As for `CN(C)C(=N[C@@H](CCCNC(=N)N)C(=O)N[C@@H](CCCNC(=N)N)C(=O)N[C@@H](Cc1ccc2ccccc2c1)C(=O)N[C@H]1CSSC[C@@H](C(=O)N[C@@H](CCCNC(=N)N)C(N)=O)NC(=O)[C@H](CCCNC(N)=O)NC(=O)[C@H](CCCNC(=N)N)NC(=O)[C@H](Cc2ccc(O)cc2)NC(=O)[C@@H]2CCCN2C(=O)[C@@H](CCCNC(N)=O)NC(=O)[C@H](CCCCN)NC(=O)[C@H](CCCNC(N)=O)NC(=O)[C@H](Cc2ccc(O)cc2)NC1=O)N(C)C` [TF18, TMguanyl-Arg-Arg-Nal-Cys-Tyr-Cit-Lys-DCit-Pro-Tyr-Arg-Cit-Cys-Arg-NH2] (X4-R[2Nal]CY[Cit]K[dCit]PYR[Cit]CR-NH2; disulfide 3-12), the half-maximal inhibitory concentration (IC50) was found to be 8 nM.

Take `N=C(N)NCCC[C@H](NC(=O)[C@@H]1CSSC[C@H](NC(=O)[C@H](Cc2ccc3ccccc3c2)NC(=O)[C@@H](N)CCCNC(=N)N)C(=O)N[C@@H](Cc2ccc(O)cc2)C(=O)N[C@@H](CCCNC(N)=O)C(=O)N[C@@H](CCCCN)C(=O)N[C@H](CCC(=O)O)C(=O)N2CCC[C@H]2C(=O)N[C@@H](Cc2ccc(O)cc2)C(=O)N[C@@H](CCCNC(=N)N)C(=O)N[C@@H](CCCNC(N)=O)C(=O)N1)C(N)=O` [TF17, H-Arg-Nal-Cys-Tyr-Cit-Lys-DGlu-Pro-Tyr-Arg-Cit-Cys-Arg-NH2] (H-R[2Nal]CY[Cit]K[dE]PYR[Cit]CR-NH2; disulfide 3-12): the 50% inhibitory concentration (IC50) worked out at 79 nM.
